The source of these data is US4082751A, “Therapeutic agents” (priority 1976, dated 1978).

Each structure is given as a SMILES string. Read-outs that look alike come from different tables or passages of the source.

Data set [1] relates to reagin-mediated Passive Cutaneous Anaphylaxis (PCA) response. Put plainly: Reagin-mediated rat Passive Cutaneous Anaphylaxis (PCA) screening test. The data set is classed as in vivo, rat (Sprague-Dawley). How it is done:
The reagin-mediated rat Passive Cutaneous Anaphylaxis (PCA) screening test used to evaluate the present compounds is generally regarded as one of the best animal models for use in predicting the antiallergy activity of test compounds in man. Briefly, the method consists of passive sensitization of skin sites on the test animals with reaginic antibodies followed after 24 hours by administration of the test drug and antigen challenge. The allergic response is measured by use of Evans'blue dye and is evaluated by the spot diameter at the injection site. Details of the test are provided below.
Ovalbumin (5 times crystalline) Dinitrobenzene sulfonic acid, Na^+ salt Bordetella pertussis vaccine - phase I 10-20 × 10 ^9 killed organisms/ml. Aluminum hydroxide gel - 10 mg./ml. Potassium carbonate Male Sprague-Dawley (S/D) Rats - 200 gms. Female Sprague-Dawley Rats - 100 gms. Tris Buffered Saline (TBS) - 0.02 M 2-amino-2-hydroxymethyl-1,3-propanediol (Tris), 0.15 M NaCL, pH 8.2
A substituted ovalbumin antigen is used both as immunogen and challenging antigen. The antigen is prepared as follows: 500 mg. ovalbumin (EA) and 500 mg. K2 CO3 are dissolved in 25 ml. distilled H2 O and stirred at room temperature for 5 minutes. Five hundred (500)mg. dinitrobenzene sulfonic acid, Na^+ salt, (previously recrystallized from hot absolute ethanol) is then added slowly with continued stirring. The reaction mixture is then immediately placed in the dark and allowed to proceed for 2 hours with constant stirring. After 2 hours the mixture is placed in suitable dialysis tubing and dialyzed against 5 changes (4 liters each) of distilled H2 O at 5° C. After dialysis the product is lyophilized and stored at room temperature in a brown or amber container. The antigen obtained will appear as a light yellow, amorphous solid which is very soluble in water or saline. It is designated as DNP denatured ovalbumin (DNP-d EA).
Adult, male Sprague-Dawley rats are used as a source of reagin-rich antisera for the PCA model. Immunization is by a combinatin of DNP-d EA on Al(OH) 3 gel and B. pertussis vaccine. Preparation of the DNP-d EA - gel immunogen is as follows: Dissolve the DNP-d EA in TBS so as to give a concentration of 10 mg./ml. Slowly add 1 ml. of this solution to 10 ml. Al(OH) 3 gel (10 mg. solids/ml.) with constant stirring at room temperature. Stir the mixture an additional 30 minutes to insure a uniform adsorption of antigen on gel.
The resulting preparation is then used in combination with phase I B. pertussis vaccine to immunize male S/D rats as follows: For each rat administer 0.1 ml. DNP-d EA - gel suspension intramuscularly in each hind leg (200 μg DNP-d EA and 2 mg. gel total dose). Follow these injections by the intraperitoneal administration of 1.0 ml. B. pertussis vaccine (10-20 × 10 ^9 organisms). The use of light ether anesthesia during this procedure is recommended to insure proper intramuscular and intraperitoneal injections. 9 days following immunization (but no longer than 10) the animals are exsanguinated by cardiac puncture or abdominal aorta cannulation under ether or pentobarbital anesthesia. The collected whole blood is allowed to clot, the serum separated by centrifugation and the individual serum samples stored frozen until assayed for IgE content.
Individual serum samples should be screened for reaginic antibody concentration before being pooled with other sera, as not all rats respond to immunization procedures with reagin production. At 1:50 saline dilution of serum from each immunized rat is used for this purpose. Intradermal injections of 0.05 ml. of the diluted sera are made in the shaven backs of two small female recipient rats, 100-120 gms. Several serum samples can be tested simultaneously in recipient animals. After a 24 to 48 hour latent period antigen challenge is accomplished by intravenous administration to each rat of 1 mg. DNP-d EA in 0.5 ml. 0.5% Evans' blue dye in saline. […]

For data set [2] the following is noted: cited from earlier work.
The conditions of data set [3]: must be administered by inhalation; cited from earlier work.
The test system of data set [4] is release of mediators, e.g. histamine and SRS-A. The settings on record: administered to asthmatic patients prior to inhalation of specific antigens; cited from earlier work.
Data set [5] can be described thus: water solubility of salts. The data set is classed as physicochemical. The settings on record: salts of 2-(2-n-propoxyphenyl)-5-(5-1H-tetrazolyl)-pyrimidin-4(3H)-one.
[6] abbreviates: po, 10 min before antigen challenge, read-out: ID50, the dose of compound that inhibits 50% of the response, p.o.
Where [7] appears, read: iv, test compounds 1-5 min before antigen challenge, DSCG at time of challenge, read-out: ID50, the dose of compound that inhibits 50% of the response, iv.
Setting [8] is: bronchodilators, bronchial asthma.

For `CCCOc1ccc(N(C)C)cc1-c1ncc(-c2nnn[nH]2)c(=O)[nH]1` [Example 16, 2-(5-Dimethylamino-2-n-propoxyphenyl)-5-(5-1H-tetrazolyl)pyrimidin-4(3H)-on], in data set [1] (setting [6]), the ED50 was ~0.4 mg/kg. On the same count and under the same terms, then `CCCCOc1ccccc1-c1ncc(-c2nnn[nH]2)c(=O)[nH]1` [Example 4, 2-(2-n-Butoxyphenyl)-5-(5-1H-tetrazolyl)pyrimidin-4(3H)-one], with ~0.07 mg/kg; and `CCCOc1ccc(OC)cc1-c1ncc(-c2nnn[nH]2)c(=O)[nH]1` [Example 10, 2-(5-Methoxy-2-n-propoxyphenyl)-5-(5-1H-tetrazolyl)pyrimidin-4(3H)-one], with 0.03 mg/kg. In the case of `O=C(O)c1cc(=O)c2c(OCC(O)COc3cccc4oc(C(=O)O)cc(=O)c34)cccc2o1` [DSCG, disodium cromoglycate], in data set [2] (in vivo), the cardiovascular side effects result was “without cardiovascular side effects”. For the same compound, the oral absorption result in data set [3] is “not orally absorbed”. The ED50 in data set [1] (setting [7]) was 0.3 mg/kg; in data set [1] (setting [6]) it was > 30 mg/kg. For the same compound, the “inhibition of release of mediators” value in data set [4] is listed as “inhibits the release of mediators”. As for `CCC(C)Oc1ccccc1-c1ncc(-c2nnn[nH]2)c(=O)[nH]1` (racemic) [Example 5, (±)-2-(2-sec-Butoxyphenyl)-5-(5-1H-tetrazolyl)pyrimidin-4(3H)-one], the ED50 in data set [1] (setting [6]) is 0.05 mg/kg. In the case of `CC(C)Oc1ccccc1-c1ncc(-c2nnn[nH]2)c(=O)[nH]1` [Example 3, 2-(2-Isopropoxyphenyl)-5-(5-1H-tetrazolyl)pyrimidin-4(3H)-one], the ED50 in data set [1] (setting [6]) is ~0.04 mg/kg. On the same count and under the same terms, then `O=c1[nH]c(-c2ccccc2OCC2CC2)ncc1-c1nnn[nH]1` [Example 9, 2-(2-Cyclopropylmethoxyphenyl)-5-(5-1H-tetrazolyl)pyrimidin-4(3H)-one], with 0.07 mg/kg. For the compound `CCCOc1ccccc1-c1ncc(-c2nnn[nH]2)c(=O)[nH]1` [diethanolamine, 2-(2-n-propoxyphenyl)-5-(5-1H-tetrazolyl)-pyrimidin-4(3H)-one], in data set [5], the water solubility result is “water soluble”. Regarding `CCCOc1ccc(N)cc1-c1ncc(-c2nnn[nH]2)c(=O)[nH]1` [Example 15, 2-(5-Amino-2-n-propoxyphenyl)-5-(5-1H-tetrazolyl)pyrimidin-4(3H)-one], the ED50 in data set [1] (setting [6]) is ~0.1 mg/kg. The same measure, in the same setting: then `CCCOc1ccc([N+](=O)[O-])cc1-c1ncc(-c2nnn[nH]2)c(=O)[nH]1` [Example 14, 2-(5-Nitro-2-n-propoxyphenyl)-5-(5-1H tetrazolyl)pyrimidin-4(3H)-one], with 5 mg/kg. Take `CCOc1ccccc1-c1ncc(-c2nnn[nH]2)c(=O)[nH]1` [Example 1, 2-(2-Ethoxyphenyl)-5-(5-1H-tetrazolyl)pyrimidin-4-(3H)-one]: the ED50 in data set [1] (setting [7]) was 0.02 mg/kg; in data set [1] (setting [6]), 0.09 mg/kg. For `CC(C)NCC(O)c1ccc(O)c(O)c1` (stereo not drawn) [isoproterenol], the undesirable side effects result in data set [2] (setting [8]) is “cardiac stimulation and gastrointestinal distress”.

With `CCCOc1ccccc1-c1ncc(-c2nnn[nH]2)c(=O)[nH]1` [Example 2, 2-(2-n-Propoxyphenyl)-5-(5-1H-tetrazolyl)pyrimidin-4(3H)-one], the ED50 in data set [1] (setting [6]) came out at 0.04 mg/kg. Take `CN1[C@@H]2CC[C@H]1C[C@@H](OC(=O)C(CO)c1ccccc1)C2` (stereo partly drawn) [atropine]: the undesirable side effects result in data set [2] (setting [8]) was “cardiac stimulation and gastrointestinal distress”. Take `C=CCOc1ccccc1-c1ncc(-c2nnn[nH]2)c(=O)[nH]1` [Example 8, 2-(2-Allyloxyphenyl)-5-(5-1H-tetrazolyl)pyrimidin-4(3H)-one]: the ED50 in data set [1] (setting [6]) is 0.24 mg/kg. Consider `Cn1c(=O)c2[nH]cnc2n(C)c1=O` [theophylline], for which, in data set [2] (in vivo), the undesirable side effects result is “cardiac stimulation and gastrointestinal distress”. Consider `CC(C)COc1ccccc1-c1ncc(-c2nnn[nH]2)c(=O)[nH]1` [Example 7, 2-(2-Isobutoxyphenyl)-5-(5-1H-tetrazolyl)pyrimidin-4(3H)-one], for which the ED50 in data set [1] (setting [6]) was ~0.1 mg/kg. For the compound `CNC[C@H](O)c1ccc(O)c(O)c1` [epinephrine], the undesirable side effects entry in data set [2] (setting [8]) is “cardiac stimulation and gastrointestinal distress”. Turning to `COc1ccccc1-c1ncc(-c2nnn[nH]2)c(=O)[nH]1` [Example 6, 2-(2-Methoxyphenyl)-5-(5-1H-tetrazolyl)pyrimidin-4(3H)-one], the ED50 in data set [1] (setting [6]) was ~0.1 mg/kg.
